± gives the standard deviation of the averaged measurements.
Assays:
[1] = compound: O=S(=O)(OCC(F)(F)F)C(F)(F)C(F)(F)C(F)(F)C(F)(F)F [2,2,2-Trifluoroethyl perfluorobutanesulfonate]; assay: level (log10 ratio to DMSO vehicle control); higher = higher biomarker level / cell amount than vehicle control; conditions: in DMSO
Protocol: (§1)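 BioMAP Diversity Plus panel of 12 human primary cell co-culture systems (3C, 4H, LPS, SAg, BT, BF4T, BE3C, CASM3C, HDF3CGF, KF3CT, MyoF, Mphg). Compounds were added 1 h before stimulation and left for 24 h (MyoF 48 h; BT 72 h for soluble read-outs or 6 d for IgG). Biomarkers were read by ELISA, cytotoxicity by SRB, PBMC viability and proliferation by Alamar Blue. Each well value was divided by the mean of 8 DMSO control wells on the same plate and log10 transformed; duplicate blinded samples were tested at 4 concentrations.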

[2] = compound: OCC(F)(F)C(F)(F)C(F)(F)C(F)(F)C(F)(F)C(F)(F)C(F)(F)C(F)(F)C(F)(F)C(F)(F)C(F)(F)F [11:1 Fluorotelomer alcohol]; assay: as above; conditions: in DMSO
Protocol: as §1

Test System	level (log10) ([1]; 6700 nM)	level (log10) ([1]; 20000 nM)	level (log10) ([1]; 60000 nM)	level (log10) ([2]; 1100 nM)	level (log10) ([2]; 3300 nM)	level (log10) ([2]; 10000 nM)
MyoF:Collagen IV	-0.0175 ± 0.044	-0.014 ± 0.038	0.0205 ± 0.056	-0.0365 ± 0.05	-0.0255 ± 0.028	-0.01 ± 0.028
MyoF:Decorin	0.0135 ± 0.066	0.027 ± 0.014	0.008 ± 0.052	0.0065 ± 0.028	0.013 ± 0.021	0.0255 ± 0.0021
MyoF:MMP-1	0.018 ± 0.16	0.043 ± 0.16	0.0695 ± 0.12	-0.027 ± 0.0042	-0.0445 ± 0.0021	0.004 ± 0.052
MyoF:PAI-I	-0.0115 ± 0.0092	-0.011 ± 0.018	-0.0065 ± 0.018	0.009 ± 0.0042	0.014 ± 0.013	0.0205 ± 0.0064
MyoF:SRB	0.0005 ± 0.011	-0.009 ± 0.014	-0.0255 ± 0.021	0 ± 0.0042	-0.0015 ± 0.012	0.0015 ± 0.016
MyoF:TIMP-1	-0.0305 ± 0.042	-0.0235 ± 0.011	-0.056 ± 0.0099	0.0095 ± 0.05	0.015 ± 0.048	0.011 ± 0.02
MyoF:alpha-SM Actin	-0.0265 ± 0.025	-0.0175 ± 0.047	-0.0235 ± 0.005	-0.0025 ± 0.015	-0.0195 ± 0.03	0.0045 ± 0.018
MyoF:bFGF	-0.015 ± 0.0042	-0.0015 ± 0.03	-0.0195 ± 0.00071	0.002 ± 0.0071	0.008 ± 0.014	0.004 ± 0.021
lMphg:CCL2/MCP-1	-0.0115 ± 0.021	-0.0245 ± 0.022	-0.0405 ± 0.0035	0.0125 ± 0.0078	0.0295 ± 0.035	0.0535 ± 0.0021
lMphg:CCL3/MIP-1alpha	-0.025 ± 0.052	-0.078 ± 0.054	-0.119 ± 0.018	0.014 ± 0.011	-0.0165 ± 0.026	-0.06 ± 0.021
lMphg:CD40	-0.0015 ± 0.00071	0.0085 ± 0.04	-0.007 ± 0.017	0.0005 ± 0.036	0.005 ± 0.042	-0.357 ± 0.028
lMphg:CD62E/E-Selectin	0.02 ± 0.031	0.0255 ± 0.033	-0.0435 ± 0.0064	0.0715 ± 0.011	0.084 ± 0.024	0.118 ± 0.012
lMphg:CD69	-0.016 ± 0.033	-0.0355 ± 0.0021	-0.079 ± 0.028	-0.038 ± 0.017	-0.103 ± 0.028	-0.0685 ± 0.0078
lMphg:CD106/VCAM-1	-0.0355 ± 0.015	-0.0215 ± 0.028	-0.055 ± 0.024	0.0045 ± 0.005	-0.001 ± 0.0014	-0.0015 ± 0.0035
lMphg:CXCL8/IL-8	0.031	0.025 ± 0.018	0.072 ± 0.068	0.111 ± 0.042	0.127 ± 0.033	0.0445 ± 0.0064
lMphg:IL-1alpha	-0.012 ± 0.0028	-0.0425 ± 0.06	-0.073 ± 0.0014	0.057 ± 0.025	0.039 ± 0.0085	-0.12 ± 0.076
lMphg:M-CSF	0.035 ± 0.017	0.014 ± 0.018	-0.006 ± 0.021	-0.0045 ± 0.005	-0.0195 ± 0.0078	-0.0735 ± 0.016
lMphg:SRB	-0.005 ± 0.0071	-0.012 ± 0.0085	-0.008 ± 0.018	0.0045 ± 0.00071	0.001	-0.0205 ± 0.005
lMphg:SRB-Mphg	-0.005 ± 0.0071	-0.019 ± 0.014	-0.024 ± 0.031	-0.039 ± 0.0014	-0.105 ± 0.0085	-0.205 ± 0.0085
lMphg:sIL-10	0.072 ± 0.0042	0.0465 ± 0.0035	-0.171 ± 0.052	-0.0255 ± 0.069	-0.0875 ± 0.066	-0.216 ± 0.082

— the supplement of paper PMC10331698
